Among the data in patent US20230058961A1, “SUBSTITUTED HETEROCYCLICS WITH THERAPEUTIC ACTIVITY IN HIV” (New York Blood Center, Inc., priority 2019, published 2023) are IC50 and CC50 values, retold here.

Molecules are shown by their SMILES.

What is called IC50 is the concentration that gives 50% inhibition.

For one series, the system named is pseudovirus HIV-1 HXB2. The series can be described thus: organism not typed. The following applies: anti-HIV-1 activity, single-cycle assay, TZM-bl cells, pseudovirus HIV-1 HXB2, read-out: IC50. It counts as cell-based.
The next series concerns TZM-bl cells. The following applies: human, 3 days.
The nature of another series: in vitro. The following applies: human.
Where [1] appears, read: Human immunodeficiency virus 1, HXB2, TZM-bl.

Protocol for TZM-bl cells: (§1) The anti-HIV-1 activity was assessed in a single-cycle assay by infecting TZM-bl indicator cells with the pseudovirus HIV-1 HXB2 according to established procedures (F. Curreli, Y. D. Kwon, D. S. Belov, R. R. Ramesh, A. V. Kurkin, A. Altieri, P. D. Kwong, A. K. Debnath, J Med Chem 2017, 60, 3124-3153; which is incorporated herein by reference for all that it teaches about the conduct and interpretation of the assay).
(§2) The cytotoxicity of the small polycyclic molecules in TZM-bl cells was determined by using the colorimetric method CellTiter 96® AQueous One Solution Cell Proliferation Assay (MTS) (Promega) following the manufacturer's instructions. Briefly, TZM-bl cells were platted in a 96-well tissue culture plate at 1×10^4/well and cultured at 37° C. Following overnight incubation, the cells were incubated with 100 μl of the compounds at graded concentrations and cultured for 3 days. The MTS reagent was added to the cells and incubated for 4 h at 37° C. The absorbance was recorded at 490 nm.
Protocol for in vitro: as §1, §2

Turning to `NCC(NC(=O)c1ccc(-c2ccc(Cl)nc2)[nH]1)c1nc(CO)cs1` (stereo not drawn) [Compound 40, N-(2-Amino-1-(4-(hydroxymethyl)thiazol-2-yl)ethyl)-5-(6-chloropyridin-3-yl)-1H-pyrrole-2-carboxamide], in the series with pseudovirus HIV-1 HXB2, the IC50 is above 11 µM. In addition, the CC50 in the series on TZM-bl cells is above 132 µM.
The corresponding values for `CC(C)(N)C(NC(=O)c1ccc(-c2ccc(C(F)(F)F)cn2)[nH]1)c1nc(CO)cs1` (stereo not drawn) [Compound 24, N-(2-Amino-1-(4-(hydroxymethyl)thiazol-2-yl)-2-methylpropyl)-5-(5-(trifluoromethyl)pyridin-2-yl)-1H-pyrrole-2-carboxamide] are 0.58 µM and 59 ± 10 µM.
As for `NCC(NC(=O)c1ccc(-c2ccc(C(F)(F)F)nn2)[nH]1)c1nc(CO)cs1` (stereo not drawn) [Compound 44, N-(2-Amino-1-(4-(hydroxymethyl)thiazol-2-yl)ethyl)-5-(6-(trifluoromethyl)pyridazin-3-yl)-1H-pyrrole-2-carboxamide], the IC50 with pseudovirus HIV-1 HXB2 was above 12 µM. Also, in the series on TZM-bl cells, the CC50 was above 73 µM.
The matching figures for `NCC(NC(=O)c1ccc(-c2ccc(C(F)(F)F)cn2)[nH]1)c1ncc(CO)s1` (stereo not drawn) [Compound 6, N-(2-Amino-1-(5-(hydroxymethyl)thiazol-2-yl)ethyl)-5-(5-(trifluoromethyl)pyridin-2-yl)-1H-pyrrole-2-carboxamide]: 1.2 µM and above 122 µM.
Turning to `Cc1ccc(-c2ccc(C(=O)NC(CN)c3nc(CO)cs3)[nH]2)nc1` (stereo not drawn) [Compound 20, N-(2-Amino-1-(4-(hydroxymethyl)thiazol-2-yl)ethyl)-5-(5-methylpyridin-2-yl)-1H-pyrrole-2-carboxamide], the 50% inhibitory concentration (IC50) was above 10 µM in the series with pseudovirus HIV-1 HXB2 (setting [1]) and above 11 µM in the series on pseudovirus HIV-1 HXB2. Besides, the CC50 in the series with TZM-bl cells is above 140 µM.
On to `NCC(NC(=O)c1ccc(-c2ccc(C(F)(F)F)cn2)[nH]1)c1nc(CCO)cs1` (stereo not drawn) [Compound 26, N-(2-Amino-1-(4-(2-hydroxyethyl)thiazol-2-yl)ethyl)-5-(5-(trifluoromethyl)pyridin-2-yl)-1H-pyrrole-2-carboxamide], for which, in the series with pseudovirus HIV-1 HXB2, the 50% inhibitory concentration (IC50) worked out at 0.76 µM. This compound yielded a CC50 with TZM-bl cells of 91 ± 3.6 µM.
The compound `NCC(NC(=O)c1ccc(-c2ccc(C(F)(F)F)cn2)[nH]1)c1nc(CO)cs1` (stereo not drawn) [Compound 22, N-(2-Amino-1-(4-(hydroxymethyl)thiazol-2-yl)ethyl)-5-(5-(trifluoromethyl)pyridin-2-yl)-1H-pyrrole-2-carboxamide] returned a CC50 with TZM-bl cells of 124 ± 7 µM.
For the compound `NCC(NC(=O)c1ccc(-c2ccc(C(F)(F)F)cn2)[nH]1)c1nc(C(O)CO)cs1` (stereo not drawn) [Compound 30, N-(2-Amino-1-(4-(1,2-dihydroxyethyl)thiazol-2-yl)ethyl)-5-(5-(trifluoromethyl)pyridin-2-yl)-1H-pyrrole-2-carboxamide], in the series with pseudovirus HIV-1 HXB2, the IC50 is 3.8 ± 0.2 µM. For the same compound, the CC50 in the series on TZM-bl cells was above 113 µM.
The matching figures for `NCC(NC(=O)c1ccc(-c2ccc(Cl)cn2)[nH]1)c1nc(CO)cs1` (stereo not drawn) [Compound 16, N-(2-Amino-1-(4-(hydroxymethyl)thiazol-2-yl)ethyl)-5-(5-chloropyridin-2-yl)-1H-pyrrole-2-carboxamide]: 1.7 ± 0.3 µM and above 132 µM.
The corresponding values for `NCC(NC(=O)c1ccc(-c2ncc(Cl)cn2)[nH]1)c1nc(CO)cs1` (stereo not drawn) [Compound 46, N-(2-Amino-1-(4-(hydroxymethyl)thiazol-2-yl)ethyl)-5-(5-chloropyrimidin-2-yl)-1H-pyrrole-2-carboxamide] are above 15.8 µM and above 66 µM.
On to `NCC(NC(=O)c1ccc(-c2ccc(F)cn2)[nH]1)c1nc(CO)cs1` (stereo not drawn) [Compound 18, N-(2-Amino-1-(4-(hydroxymethyl)thiazol-2-yl)ethyl)-5-(5-fluoropyridin-2-yl)-1H-pyrrole-2-carboxamide], for which the concentration for half-maximal inhibition (IC50) in the series with pseudovirus HIV-1 HXB2 is above 11 µM. Besides, in the series with TZM-bl cells, the CC50 was above 138 µM.
Take `NCC(NC(=O)c1ccc(-c2ccc(Cl)cn2)[nH]1)c1csc(CO)n1` (stereo not drawn) [Compound 68, N-(2-Amino-1-(2-(hydroxymethyl)thiazol-4-yl)ethyl)-5-(5-chloropyridin-2-yl)-1H-pyrrole-2-carboxamide]: in the series on pseudovirus HIV-1 HXB2 (setting [1]), the IC50 is 8.2 ± 2.1 µM. This compound displayed a CC50 in the series on TZM-bl cells above 106 µM.
For `NCC(NC(=O)c1ccc(-c2ccc(C(F)(F)F)cn2)[nH]1)c1nc(CO)c(CO)s1` (stereo not drawn) [Compound 36, N-(2-Amino-1-(4,5-bis(hydroxymethyl)thiazol-2-yl)ethyl)-5-(5-(trifluoromethyl)pyridin-2-yl)-1H-pyrrole-2-carboxamide], the IC50 with pseudovirus HIV-1 HXB2 was 13 µM. For the same compound, in the series with TZM-bl cells, the CC50 was above 113 µM.
As to `NCC(NC(=O)c1ccc(-c2ccc(C(F)(F)F)cn2)[nH]1)c1ncc(C(O)CO)s1` (stereo not drawn) [Compound 14, N-(2-Amino-1-(5-(1,2-dihydroxyethyl)thiazol-2-yl)ethyl)-5-(5-(trifluoromethyl)pyridin-2-yl)-1H-pyrrole-2-carboxamide], the half-maximal inhibitory concentration (IC50) in the series on pseudovirus HIV-1 HXB2 worked out at 5.9 ± 0.6 µM. Moreover, the CC50 in the series with TZM-bl cells was above 113 µM.
The matching figures for `NCC(NC(=O)c1ccc(-c2ccc(C(F)(F)F)cn2)[nH]1)c1nccs1` (stereo not drawn) [Compound 38, N-(2-Amino-1-(thiazol-2-yl)ethyl)-5-(5-(trifluoromethyl)pyridin-2-yl)-1H-pyrrole-2-carboxamide]: 1.2 ± 0.03 µM and 93.6 ± 1.5 µM.
Consider `Cc1cc(-c2ccc(Cl)cn2)[nH]c1C(=O)NC(CN)c1ncc(CO)s1` (stereo not drawn) [Compound 4, N-(2-Amino-1-(5-(hydroxymethyl)thiazol-2-yl)ethyl)-5-(5-chloropyridin-2-yl)-3-methyl-1H-pyrrole-2-carboxamide], for which the IC50 with pseudovirus HIV-1 HXB2 was 2.4 ± 0.2 µM. This compound also had a CC50 in the series on TZM-bl cells of 95 ± 3.6 µM.
The matching figures for `COc1cc(-c2ccc(C(=O)NC(CN)c3nc(CO)cs3)[nH]2)ccn1` (stereo not drawn) [Compound 48, N-(2-Amino-1-(4-(hydroxymethyl)thiazol-2-yl)ethyl)-5-(2-methoxypyridin-4-yl)-1H-pyrrole-2-carboxamide]: above 11 µM and above 133 µM.
In the series on TZM-bl cells, `Cc1cc(-c2ccc(C(F)(F)F)cn2)[nH]c1C(=O)NC(c1ncc(CO)s1)C(C)(C)N` (stereo not drawn) [Compound 12, N-(2-Amino-1-(5-(hydroxymethyl)thiazol-2-yl)-2-methylpropyl)-3-methyl-5-(5-(trifluoro-methyl)pyridin-2-yl)-1H-pyrrole-2-carboxamide] returned a CC50 of 37.5 ± 2.2 µM.
Take `Cc1cc(-c2ccc(C(F)(F)F)cn2)[nH]c1C(=O)NC(CN)c1csc(CO)n1` (stereo not drawn) [Compound 64, N-(2-Amino-1-(2-(hydroxymethyl)thiazol-4-yl)ethyl)-3-methyl-5-(5-(trifluoromethyl)pyridin-2-yl)-1H-pyrrole-2-carboxamide]: in the series on pseudovirus HIV-1 HXB2, the IC50 worked out at 1.3 ± 0.2 µM. This compound came in with a CC50 with TZM-bl cells of 47.8 ± 5.9 µM.
The matching figures for `NCC(NC(=O)c1ccc(-c2ccc(Cl)cn2)[nH]1)c1cnc(CO)s1` (stereo not drawn) [Compound 60, N-(2-Amino-1-(2-(hydroxymethyl)thiazol-5-yl)ethyl)-5-(5-chloropyridin-2-yl)-1H-pyrrole-2-carboxamide]: 3.6 ± 0.4 µM and above 106 µM.
As to `NCC(NC(=O)c1ccc(-c2ccc(C(F)(F)F)cn2)[nH]1)c1nc(CCCO)cs1` (stereo not drawn) [Compound 28, N-(2-Amino-1-(4-(3-hydroxypropyl)thiazol-2-yl)ethyl)-5-(5-(trifluoromethyl)pyridin-2-yl)-1H-pyrrole-2-carboxamide], in the series on pseudovirus HIV-1 HXB2, the IC50 came to 0.89 ± 0.12 µM. In addition, in the series with TZM-bl cells, the CC50 turned out to be 81.2 ± 1.3 µM.
The matching figures for `NCC(NC(=O)c1ccc(-c2ccc(C(F)(F)F)nc2)[nH]1)c1nc(CO)cs1` (stereo not drawn) [Compound 42, N-(2-Amino-1-(4-(hydroxymethyl)thiazol-2-yl)ethyl)-5-(6-(trifluoromethyl)pyridin-3-yl)-1H-pyrrole-2-carboxamide]: 11.9 ± 1.9 µM and above 122 µM.
For the compound `NCC(NC(=O)c1ccc(-c2ccc(C(F)(F)F)nn2)[nH]1)c1nc(CO)cs1` (stereo not drawn) [Compound 43, N-(2-Amino-1-(4-(hydroxymethyl)thiazol-2-yl)ethyl)-5-(6-(trifluoromethyl)pyridazin-3-yl)-1H-pyrrole-2-carboxamide], the IC50 with pseudovirus HIV-1 HXB2 (setting [1]) was above 10 µM; in the series with pseudovirus HIV-1 HXB2, above 12 µM. This compound also displayed a CC50 at 3 days in the series “in vitro” (CC50) above 73 µM.
As for `NCC(NC(=O)c1ccc(-c2ccc(C(F)(F)F)cn2)[nH]1)c1csc(C(=O)NCCO)n1` (stereo not drawn) [Compound 70, 4-(2-Amino-1-(5-(5-(trifluoromethyl)pyridin-2-yl)-1H-pyrrole-2-carboxamido)ethyl)-N-(2-hydroxyethyl)thiazole-2-carboxamide], in the series on pseudovirus HIV-1 HXB2, the IC50 is above 21.3 µM. In addition, the CC50 with TZM-bl cells is above 107 µM.
The corresponding values for `CC(C)(N)C(NC(=O)c1ccc(-c2ccc(C(F)(F)F)cn2)[nH]1)c1ncc(CO)s1` (stereo not drawn) [Compound 10, N-(2-Amino-1-(5-(hydroxymethyl)thiazol-2-yl)-2-methylpropyl)-5-(5-(trifluoromethyl)pyridin-2-yl)-1H-pyrrole-2-carboxamide] are 0.5 µM and 41 ± 2.5 µM.
Consider `NCC(NC(=O)c1ccc(-c2ccc(Cl)cn2)[nH]1)c1nc(CO)cs1` (stereo not drawn) [Compound 15, N-(2-Amino-1-(4-(hydroxymethyl)thiazol-2-yl)ethyl)-5-(5-chloropyridin-2-yl)-1H-pyrrole-2-carboxamide], for which the IC50 in the series with pseudovirus HIV-1 HXB2 was 5 ± 0.5 µM. For the same compound, the CC50 at 3 days was above 132 µM in the series “in vitro” (CC50) and above 100 µM in the series “in vitro” (CC50, cytotoxicity, TZM-bl cells, MTS, 3 days).
On to `NCC(NC(=O)c1ccc(-c2ccc(C(F)(F)F)cn2)[nH]1)c1csc(CO)n1` (stereo not drawn) [Compound 66, N-(2-Amino-1-(2-(hydroxymethyl)thiazol-4-yl)ethyl)-5-(5-(trifluoromethyl)pyridin-2-yl)-1H-pyrrole-2-carboxamide], for which, in the series with pseudovirus HIV-1 HXB2, the concentration for half-maximal inhibition (IC50) turned out to be 1.7 ± 0.2 µM. The compound further registered a CC50 with TZM-bl cells of 85.1 ± 2.5 µM.
Regarding `Cc1cc(-c2ccc(C(F)(F)F)cn2)[nH]c1C(=O)NC(C)(CN)c1nc(CO)cs1` (racemic) [Compound 31, N-(1-Amino-2-(4-(hydroxymethyl)thiazol-2-yl)propan-2-yl)-3-methyl-5-(5-(trifluoromethyl)-pyridin-2-yl)-1H-pyrrole-2-carboxamide], the IC50 in the series on pseudovirus HIV-1 HXB2 (setting [1]) was determined as 2.6 ± 0.4 µM. In “in vitro” (CC50), this compound returned a CC50 at 3 days above 68.3 µM.
